Source: paper PMC12734683 (Chemistry (Weinheim an Der Bergstrasse, Germany), 2025)

What was measured:
[1] = tested on: d(5′‐CGCGAATTCGCG‐3′)2 (DNA, duplex) CGCGAATTCGCG; assay: ethidium bromide displacement fluorescence quenching, double-log plot; conditions: 100 mM phosphate (cation not given); pH 7.0, 298 K; 20 μM DNA, 5.2 μM ethidium bromide displaced; apparent
[2] = tested on: d(5′‐CGCGAATTCGCG‐3′)2 (DNA, duplex) CGCGAATTCGCG; assay: 1H NMR titration; conditions: 100 mM phosphate (cation not given), H2O:D2O 9:1, pH 7.0, 298 K, r = 0.5-2
NIH-3T3 = assay: Cell growth assay (IncuCyte Zoom), cytotoxicity to normal fibroblasts; format: cell-based, mouse; conditions: NIHT‐3T3 normal fibroblasts
Experimental: (§1) The human breast adenocarcinoma cell line MCF-7 and the mouse embryonic fibroblast cell line NIH-3T3 were cultured in high- glucose Dulbecco’s modified Eagle’s medium (DMEM) supplemented with 10% fetal bovine serum and 1% penicillin/ streptomycin. The human ovarian cancer cell line A2780 and its cisplatin resistant derivative (A2780cis-res) were maintained in RPMI-1640 medium supplemented with 10% fetal bovine serum and 1% penicillin/streptomycin. All cell lines were routinely passaged every 2 – 3 days, and incubated at 37 °C in a humidified atmosphere containing 5% CO2.
(§2) Cell growth and the cytotoxic effects of the complexes were monitored using the IncuCyte Zoom system and software(Essen BioScience, Hertfordshire, United Kingdom), as previously described^84. The IC50 values of cisplatin and of the complexes were determined by fitting a log(concentration) versus normalized response curve using GraphPad Prism, version 8.01.

MCF‐7 = assay: Cell growth assay (IncuCyte Zoom), cytotoxicity; format: cell-based, human
Experimental: as §1, §2

A2780cis‐res = assay: Cell growth assay (IncuCyte Zoom), cytotoxicity; format: cell-based, human
Experimental: as §1, §2

A2780 = assay: Cell growth assay (IncuCyte Zoom), cytotoxicity; format: cell-based, human
Experimental: as §1, §2

Q: How did the K b [1] turn out when Cc1ccc(C(C)C)cc1.Cc1ccc(C(C)C)cc1.[Ru+2].[Ru+2].[c-]1cccc2ccc3cccnc3c12.[c-]1cccc2ccc3cccnc3c12.c1cc(-c2ccncc2)ccn1 was run?
A: 807.6 ± 19.9 × 10^3 M^-1

Q: For Cc1ccc(C(C)C)cc1.Cc1ccc(C(C)C)cc1.[Ru+2].[Ru+2].[c-]1cccc2ccc3cccnc3c12.[c-]1cccc2ccc3cccnc3c12.c1cc(CCCc2ccncc2)ccn1, which K b [1] is on record?
A: 602.8 ± 76.1 × 10^3 M^-1

Q: With Cc1ccc(C(C)C)cc1.Cc1ccc(C(C)C)cc1.[Ru+2].[Ru+2].[c-]1cccc2ccc3cccnc3c12.[c-]1cccc2ccc3cccnc3c12.c1cc(CCc2ccncc2)ccn1 as the compound, how does the K b [1] read?
A: 298.4 ± 4.3 × 10^3 M^-1

Q: Which results are given for Cc1ccc(C(C)C)cc1.Cc1ccc(C(C)C)cc1.[Ru+2].[Ru+2].[c-]1cccc2ccc3cccnc3c12.c1cc(-c2ccncc2)ccn1.c1cnc2c(c1)ccc1cccnc12?
A: K b [1]: 5.59 ± 0.21 × 10^3 M^-1; binding ([2]; minor-groove intercalation): yes

Q: With Cc1ccc(C(C)C)cc1.Cc1ccc(C(C)C)cc1.[Ru+2].[Ru+2].[c-]1cccc2ccc3cccnc3c12.c1cc(CCCc2ccncc2)ccn1.c1cnc2c(c1)ccc1cccnc12 as the compound, how does the K b [1] read?
A: 6.70 ± 0.58 × 10^3 M^-1

Q: What about the binding ([2]; groove binding) of the same compound?
A: yes

Q: With Cc1ccc(C(C)C)cc1.Cc1ccc(C(C)C)cc1.[Ru+2].[Ru+2].[c-]1cccc2ccc3cccnc3c12.c1cc(CCc2ccncc2)ccn1.c1cnc2c(c1)ccc1cccnc12 as the compound, how does the K b [1] read?
A: 28.51 ± 0.97 × 10^3 M^-1

Q: And the binding ([2]; groove binding at duplex ends)?
A: yes

Q: N.N.[Cl][Pt][Cl] [cisplatin, reference compound] was tested. Which IC50 (NIH-3T3) did it give?
A: 3.02 ± 0.36 µM

Q: What about the IC50 (MCF‐7; MCF‐7 cells) of the same compound?
A: 14.6 ± 1.25 µM

Q: What about the “Selectivity index IC50(NIHT‐3T3)/IC50(MCF‐7)” value (MCF‐7; first of three values in the cell) of the same compound?
A: 1.2

Q: And the “Resistant factor IC50 (A2780cisR)/IC50(A2780)” value (A2780cis‐res)?
A: 7.3

Q: And the IC50 (A2780cis‐res; A2780cis‐res cells)?
A: 18.4 ± 1.59 µM

Q: And the “Selectivity index IC50(NIHT‐3T3)/IC50(A2780cis‐res)” value (A2780cis‐res; third of three values in the cell)?
A: 0.2

Q: What about the “Selectivity index IC50(NIHT‐3T3)/IC50(A2780)” value (A2780) of the same compound?
A: 0.2

Q: What about the IC50 (A2780; A2780 cells) of the same compound?
A: 2.54 ± 0.11 µM
